This note sets out measurements from patent US6204293A, “Inhibitors of protein isoprenyl transferases” (University of Pittsburgh, priority 1998, dated 2001).

Where a name gives a salt, the structure may show the parent alone.

T1 sequence (Q02293 whole entry, one chain of several): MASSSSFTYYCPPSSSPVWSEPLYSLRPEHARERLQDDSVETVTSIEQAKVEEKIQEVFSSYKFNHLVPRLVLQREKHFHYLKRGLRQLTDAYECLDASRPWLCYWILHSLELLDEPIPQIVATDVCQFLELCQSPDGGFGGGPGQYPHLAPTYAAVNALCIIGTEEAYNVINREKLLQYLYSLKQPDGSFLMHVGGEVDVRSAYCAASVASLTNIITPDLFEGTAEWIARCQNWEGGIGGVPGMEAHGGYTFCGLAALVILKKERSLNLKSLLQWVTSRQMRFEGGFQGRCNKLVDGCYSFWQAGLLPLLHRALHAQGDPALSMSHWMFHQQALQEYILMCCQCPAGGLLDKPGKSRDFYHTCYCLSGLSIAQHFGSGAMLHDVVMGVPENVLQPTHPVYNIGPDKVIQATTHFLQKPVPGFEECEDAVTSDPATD

One assay has as its target T1, Rat brain protein farnesyltransferase (Rattus norvegicus, UniProt Q02293+Q04631).
T1 construct: Rat brain protein farnesyltransferase activity is measured; from tissue; host or cells: rat brain
In words: % inhibition of farnesylation, scintillation proximity assay with biotin-K Ras B fragment. The settings on record: Table 1; 1 × 10^-5 M. The assay is classed as biochemical. Put shortly: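 Scintillation proximity read-out of farnesylation, using a biotinylated K Ras B fragment (0.1 mM final) in place of biotin-lamin. Enzyme purified from rat brain; results given as % inhibition.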
A general note: SPA uses beads or plates that emit light when radiolabelled molecules are held near them.
`CSCC[C@H](NC(=O)c1ccc(NC(=O)[C@@H]2C[C@@H](O)CN2)cc1-c1ccccc1)C(=O)O` [Example 952]: the % inhibition (commonly the change of the read-out against control, counted positive when it falls) at 1 × 10^-5 M is reported as over 50%.

The assay is the same for the next values; noted with them: Table 2; 1 × 10^-6 M.
For `CSCC[C@H](NC(=O)c1ccc(CNCc2ccccc2)cc1-c1ccccc1)C(=O)O.Cl` [Example 936], the “% inhibition at 1 × 10^-6 M” value came to 69%. Take `CSCC[C@H](NC(=O)c1ccc(NC(=O)OCCCl)cc1-c1ccccc1)C(=O)O` [Example 979]: the “% inhibition at 1 × 10^-6 M” value amounted to 26%. The same measure, in the same setting: as for `CSCC[C@H](NC(=O)c1ccc(CN(C)C(C)(C)Cc2ccccc2)cc1-c1ccccc1C)C(=O)O` [Example 982], the figure is 64%; as for `CSCC[C@H](NC(=O)c1ccc(CN2CCC(OCc3ccccc3)C2)cc1-c1ccccc1C)C(=O)O` (stereo partly drawn) [Example 988], 92%.

Turning to `CSCC[C@H](NC(=O)c1ccc(CN2CCCC(OCc3ccccc3)C2)cc1-c1ccccc1C)C(=O)O` (stereo partly drawn) [Example 989], the “% inhibition at 1 × 10^-6 M” value was found to be 88%.

Still in this assay, the particulars now being: Table 3; 1 × 10^-7 M.
`CCSCC(CC1CCCCC1)N(Cc1ccc(C(=O)N[C@@H](CCSC)C(=O)O)c(-c2ccccc2C)c1)CC(C)C` (stereo partly drawn) [Example 945]: the “% inhibition at 1 × 10^-7 M” value is on record as 80%. The same measure, in the same setting: the result for `CCSC[C@H](CC1CCCCC1)N(Cc1ccc(C(=O)N[C@@H](CCSC)C(=O)O)c(-c2ccccc2C)c1)C(C)=O` [Example 947] reads 79%; that for `CCSC[C@H](CC1CCCCC1)N(Cc1ccc(C(=O)N[C@@H](CCSC)C(=O)O)c(-c2ccccc2C)c1)C(=O)OC(C)(C)C` [Example 948], 75%. Same read-out and setting: as for `CCSC[C@H](CC1CCCCC1)N(Cc1ccc(C(=O)N[C@@H](CCSC)C(=O)O)c(-c2ccccc2C)c1)C(=O)c1ccccc1` [Example 949], the figure is 57%; as for `CCCCS(=O)(=O)N(Cc1ccc(C(=O)N[C@@H](CCSC)C(=O)O)c(-c2ccccc2C)c1)[C@H](CSCC)CC1CCCCC1` [Example 950], 71%; as for `CCSC[C@H](CC1CCCCC1)N(Cc1ccc(C(=O)N[C@@H](CCSC)C(=O)O)c(-c2ccccc2C)c1)S(=O)(=O)c1ccccc1` [Example 951], 71%. Still for that read-out and setting: as for `CSCC[C@H](NC(=O)c1ccc(NC[C@@H]2C[C@H](S)CN2)cc1-c1ccccc1)C(=O)O` [Example 959], the figure is over 50%; as for `CSCC[C@H](NC(=O)c1ccc(CN2CCCC(OCC3CCCCC3)C2)cc1-c1ccccc1C)C(=O)O` (stereo partly drawn) [Example 990], 84%.

Staying with this assay, now noted: Table 4; 1 × 10^-8 M.
In the case of `CCSC[C@H](CC1CCCCC1)N(C)Cc1ccc(C(=O)N[C@@H](CCSC)C(=O)O)c(-c2ccccc2C)c1` [Example 944], the “% inhibition at 1 × 10^-8 M” value was determined as 88%. The same measure, in the same setting: the result for `CCSC[C@H](CC1CCCCC1)N(C=O)Cc1ccc(C(=O)N[C@@H](CCSC)C(=O)O)c(-c2ccccc2C)c1` [Example 946] reads 52%; that for `CSCC[C@H](NC(=O)c1ccc(NC[C@H]2NCC[C@H]2S)cc1-c1ccccc1)C(=O)O` [Example 960], over 50%. On the same count and under the same terms, the result for `CSCC[C@H](NC(=O)c1ccc(CN(CCC2CCCCC2)Cc2cncs2)cc1-c1ccccc1C)C(=O)O` [Example 986] reads 95%.

Still in this assay, the particulars now being: read-out: % inhibition at 1 × 10^-6 M; Table 2; 1 × 10^-6 M.
For `COc1ccc(CCOCc2ccc(C(=O)N[C@@H](CCSC)C(=O)O)c(-c3ccccc3C)c2)cc1` [Example 937, N-[4-(2-(4-methoxyphenyl)ethoxymethyl)-2-(2-methylphenylbenzoyl]methioninelithium salt], the inhibition (commonly the drop in the measured response relative to a control, in per cent) at 1 µM stood at 95%.

In the case of `CSCC[C@H](NC(=O)c1ccc(COC2CCN(Cc3ccccc3)C2)cc1-c1ccccc1C)C(=O)O` (stereo partly drawn) [Example 987, N-[4-(1-benzylpyrrolidin-3-oxymethyl)-2-(2-methylphenyl)benzoyl]methionine], the inhibition at 1 µM worked out at 93%.

The same assay, now with this note: read-out: % inhibition at 1 × 10^-7 M.
Consider `COc1ccccc1COCc1ccc(C(=O)N[C@@H](CCSC)C(=O)O)c(-c2ccccc2C)c1` [Example 931, N-[4-(2-methoxybenzyloxymethyl)-2-(2-methylphenyl)benzoyl]methionine lithium salt], for which the inhibition at 0.1 µM is 98%. Turning to `CSCC[C@H](NC(=O)c1ccc(COCc2ccc(Cl)cc2)cc1-c1ccccc1C)C(=O)O` [Example 933, N-[4-(4-chlorobenzyloxymethyl)-2-(2-methylphenyl)benzoyl]methionine lithium salt], the inhibition at 0.1 µM was 91%.

With `COc1ccc(COCc2ccc(C(=O)N[C@@H](CCSC)C(=O)O)c(-c3ccccc3C)c2)cc1` [Example 935, N-[4-(4-methoxybenzyloxymethyl)-2-(2-methylphenyl)benzoyl]methionine lithium salt], the inhibition at 0.1 µM is 72%. Same read-out and setting: the result for `CSCC[C@H](NC(=O)c1ccc(COCc2ccc(C(C)C)cc2)cc1-c1ccccc1C)C(=O)O` [Example 940, N-[4-(4-isopropylbenzyloxymethyl)-2-(2-methylphenyl)benzoyl]methionine lithium salt] reads 92%.

The assay is the same for the next values; noted with them: read-out: % inhibition at 1 × 10^-7 M; Table 3; 1 × 10^-7 M.
Regarding `CSCC[C@H](NC(=O)c1ccc(COCc2cccc(N(C)C)c2)cc1-c1ccccc1C)C(=O)O` [Example 941, N-[4-(3-N,N-dimethylaminobenzyloxymethyl)-2-(2-methylphenyl)benzoyl]methionine lithium salt], the inhibition at 0.1 µM was 90%.

The same assay, now with this note: read-out: % inhibition at 1 × 10^-8 M.
In the case of `CSCC[C@H](NC(=O)c1ccc(COCc2ccccc2Cl)cc1-c1ccccc1C)C(=O)O` [Example 930, N-[4-(2-chlorobenzyloxymethyl)-2-(2-methylphenyl)benzoyl]methionine lithium salt], the inhibition at 0.01 µM came to 66%. Still for that read-out and setting: the result for `COc1cccc(COCc2ccc(C(=O)N[C@@H](CCSC)C(=O)O)c(-c3ccccc3C)c2)c1` [Example 932, N-[4-(3-methoxybenzyloxymethyl)-2-(2-methylphenyl)benzoyl]methionine lithium salt] reads 60%; that for `CSCC[C@H](NC(=O)c1ccc(COCc2cccc(Cl)c2)cc1-c1ccccc1C)C(=O)O` [Example 934, N-[4-(3-chlorobenzyloxymethyl)-2-(2-methylphenyl)benzoyl]methionine lithium salt], 71%. Consider `CSCC[C@H](NC(=O)c1ccc(COCc2ccccc2C(C)C)cc1-c1ccccc1C)C(=O)O` [Example 938, N-[4-(2-isopropylbenzyloxymethyl)-2-(2-methylphenyl)benzoyl]methionine lithium salt], for which the inhibition at 0.01 µM came out at 61%. Still for that read-out and setting: as for `CSCC[C@H](NC(=O)c1ccc(COCc2cccc(C(C)C)c2)cc1-c1ccccc1C)C(=O)O` [Example 939, N-[4-(3-isopropylbenzyloxymethyl)-2-(2-methylphenyl)benzoyl]methionine lithium salt], the figure is 72%; as for `CCCCC(CCCC)OCc1ccc(C(=O)N[C@@H](CCSC)C(=O)O)c(-c2ccccc2C)c1` [Example 942, N-[4-(nonan-5-yloxymethyl)-2-(2-methylphenyl)benzoyl]methionine lithium salt], 58%.

The same assay, now with this note: read-out: % inhibition at 1 × 10^-8 M; Table 4; 1 × 10^-8 M.
With `CCCCC(Cc1ccccc1Cl)OCc1ccc(C(=O)N[C@@H](CCSC)C(=O)O)c(-c2ccccc2C)c1` (stereo partly drawn) [Example 943, N-[4-(1-(2-chlorophenyl)hexan-2-yloxymethyl)-2-(2-methylphenyl)benzoyl]methioninelithium salt], the inhibition at 0.01 µM came to 79%. Still for that read-out and setting: the result for `CCCCC(OCc1ccc(C(=O)N[C@@H](CCSC)C(=O)O)c(-c2ccccc2C)c1)c1cncs1` (stereo partly drawn) [Example 985] reads 89%.
